Data published in patent publication US6462045B1, “Method of treating pulmonary hypertension” (Orion Corporation, priority 1998, dated 2002).

Key:
[1] = system: patient with pulmonary hypertension; assay: Experiment 2: levosimendan infusion for 5.5 hrs in a patient with pulmonary hypertension, mean pulmonary artery pressure; format: in vivo, human
Method: Levosimendan was administered by infusion (0.1-0.4 μg/kg/min) to a patient with pulmonary hypertension in amounts of 0.1, 0.2 and 0.4 μg/kg/min for 5.5 hrs. At 0.25 h the infusion rate was 0.1 μg/kg/min, at 2.00 h the infusion rate was increased to 0.2 μg/kg/min and at 4.5 h the infusion rate was increased to 0.4 μg/kg/min. The change in the mean pulmonary artery pressure (MPAP) was determined.
Table 1. The change of mean pulmonary artery pressure (NPAP) during levosimendan infusion. 0.25 h infusion rate 0.1 μg/kg/min, 2.00 h infusion rate 0.2 μg/kg/min, 4.5 h infusion rate 0.4 μg/kg/min.

patients = assay: Experiment 1: levosimendan infusion for 24 hrs in 95 patients, change in mean pulmonary artery pressure; format: in vivo, human; conditions: infusion 0.05, 0.1, 0.2, 0.4 and 0.6 μg/kg/min for 24 hrs, FIG. 1
Method: Levosimendan (LS) was administered by infusion (0.05-0.6 μg /kg/min) to totally 95 patients (n=14-23 per group) in amounts of 0.05, 0.1, 0.2, 0.4 and 0.6 μg/kg/min for 24 hrs. The change in the mean pulmonary artery pressure was determined.
------ is placebo, --O-- is vehicle, --[…]-- is dobutamine,
— is LS 0.05 μg/kg/min, —C— is LS 0.1 μg/kg/min, —□— is LS 0.2 μg/kg/min,
—⋄— is LS 0.4 μg/kg/min, —Δ— is LS 0.6 μg/kg/min

CC1CC(=O)NN=C1c1ccc(NN=C(C#N)C#N)cc1 (single isomer, unassigned; (-)) [levosimendan, (−)-[[4-(1,4,5,6-tetrahydro-4-methyl-6-oxo-3-pyridazinyl)phenyl]hydrazono]propanedinitrile]
change in the mean pulmonary artery pressure (MPAP) ([1]; infusion 0.1, 0.2 and 0.4 μg/kg/min for 5.5 hrs, one patient with pulmonary hypertension): able to significantly lower pulmonary artery pressure
MPAP ([1]; time 0 h (before the 0.1 μg/kg/min infusion rate at 0.25 h)): 41 mmHg
MPAP ([1]; time 0.75 h, infusion rate 0.1 μg/kg/min): 42 mmHg
MPAP ([1]; time 1.25 h, infusion rate 0.1 μg/kg/min): 42 mmHg
MPAP ([1]; time 1.75 h, infusion rate 0.1 μg/kg/min): 39 mmHg
MPAP ([1]; time 2.50 h, infusion rate 0.2 μg/kg/min): 34 mmHg
MPAP ([1]; time 3.00 h, infusion rate 0.2 μg/kg/min): 35 mmHg
MPAP ([1]; time 3.50 h, infusion rate 0.2 μg/kg/min): 35 mmHg
MPAP ([1]; time 4.00 h, infusion rate 0.2 μg/kg/min): 32 mmHg
MPAP ([1]; time 5.00 h, infusion rate 0.4 μg/kg/min): 27 mmHg
MPAP ([1]; time 5.50 h, infusion rate 0.4 μg/kg/min): 29 mmHg
change in the mean pulmonary artery pressure (patients): able to significantly lower pulmonary artery pressure
